Reference: the NIST ThermoML archive (doi:10.1016/j.jct.2004.12.014)
± gives the expanded uncertainty stated by the source.

Assays:
[1] = xn = mol fraction of the nth substance listed; conditions: 318.15 K, 101 kPa, Liquid
[2] = excess molar enthalpy (molar enthalpy of mixing); xn = mol fraction of the nth substance listed; conditions: 318.15 K, 101 kPa, Liquid

CCCCCCCCCCCCCCC [pentadecane] + CCC(=O)OC
Conditions	excess molar enthalpy [kcal/mol]	excess molar volume [m3/mol]
[1], x2 = 0.0815	–	3.78e-07 ± 1.7e-08
[1], x2 = 0.1606	–	7e-07 ± 1.9e-08
[1], x2 = 0.2792	–	1.134e-06 ± 2.1e-08
[1], x2 = 0.377	–	1.401e-06 ± 2.2e-08
[1], x2 = 0.4695	–	1.535e-06 ± 2.3e-08
[1], x2 = 0.5395	–	1.586e-06 ± 2.3e-08
[1], x2 = 0.6103	–	1.569e-06 ± 2.3e-08
[1], x2 = 0.6695	–	1.514e-06 ± 2.3e-08
[1], x2 = 0.7187	–	1.405e-06 ± 2.2e-08
[1], x2 = 0.7639	–	1.277e-06 ± 2.1e-08
[1], x2 = 0.8034	–	1.137e-06 ± 2.1e-08
[1], x2 = 0.8389	–	1.001e-06 ± 2e-08
[1], x2 = 0.8718	–	8.65e-07 ± 2e-08
[1], x2 = 0.9023	–	7.29e-07 ± 1.9e-08
[1], x2 = 0.9297	–	5.72e-07 ± 1.8e-08
[1], x2 = 0.9549	–	4.07e-07 ± 1.7e-08
[1], x2 = 0.9781	–	2.28e-07 ± 1.7e-08
[2], x2 = 0.125	0.172 ± 0.00311	–
[2], x2 = 0.233	0.296 ± 0.00502	–
[2], x2 = 0.3463	0.398 ± 0.00645	–
[2], x2 = 0.435	0.457 ± 0.00741	–
[2], x2 = 0.5058	0.486 ± 0.00789	–
[2], x2 = 0.5584	0.495 ± 0.00813	–
[2], x2 = 0.6021	0.495 ± 0.00813	–
[2], x2 = 0.6368	0.487 ± 0.00789	–
[2], x2 = 0.6819	0.466 ± 0.00765	–
[2], x2 = 0.7197	0.439 ± 0.00717	–
[2], x2 = 0.7527	0.408 ± 0.00669	–
[2], x2 = 0.7913	0.367 ± 0.00598	–
[2], x2 = 0.8294	0.318 ± 0.00526	–
[2], x2 = 0.8668	0.272 ± 0.00454	–
[2], x2 = 0.9037	0.217 ± 0.00382	–
[2], x2 = 0.94	0.151 ± 0.00287	–
[2], x2 = 0.9713	0.0789 ± 0.00184	–

CCCCCCCCCCCCC [tridecane] + CCCOC(=O)CC
Conditions	excess molar enthalpy [kcal/mol]	excess molar volume [m3/mol]
[1], x2 = 0.1068	–	3.54e-07 ± 1.7e-08
[1], x2 = 0.2003	–	6.1e-07 ± 1.8e-08
[1], x2 = 0.2831	–	7.8e-07 ± 1.9e-08
[1], x2 = 0.3626	–	8.99e-07 ± 2e-08
[1], x2 = 0.4343	–	9.83e-07 ± 2e-08
[1], x2 = 0.4988	–	1.001e-06 ± 2e-08
[1], x2 = 0.5633	–	1.013e-06 ± 2e-08
[1], x2 = 0.6197	–	9.68e-07 ± 2e-08
[1], x2 = 0.6738	–	9.29e-07 ± 2e-08
[1], x2 = 0.7241	–	8.44e-07 ± 1.9e-08
[1], x2 = 0.7705	–	7.66e-07 ± 1.9e-08
[1], x2 = 0.8135	–	6.6e-07 ± 1.9e-08
[1], x2 = 0.8558	–	5.36e-07 ± 1.8e-08
[1], x2 = 0.8941	–	4.18e-07 ± 1.7e-08
[1], x2 = 0.9306	–	2.67e-07 ± 1.7e-08
[1], x2 = 0.9641	–	1.43e-07 ± 1.6e-08
[2], x2 = 0.0771	0.0824 ± 0.00167	–
[2], x2 = 0.1623	0.154 ± 0.00287	–
[2], x2 = 0.248	0.217 ± 0.00382	–
[2], x2 = 0.3288	0.264 ± 0.00454	–
[2], x2 = 0.4032	0.294 ± 0.00502	–
[2], x2 = 0.471	0.31 ± 0.00526	–
[2], x2 = 0.5295	0.315 ± 0.00526	–
[2], x2 = 0.5719	0.311 ± 0.00526	–
[2], x2 = 0.5818	0.308 ± 0.00502	–
[2], x2 = 0.6224	0.298 ± 0.00502	–
[2], x2 = 0.6662	0.283 ± 0.00478	–
[2], x2 = 0.7127	0.261 ± 0.0043	–
[2], x2 = 0.7593	0.232 ± 0.00406	–
[2], x2 = 0.8089	0.199 ± 0.00359	–
[2], x2 = 0.8585	0.161 ± 0.00287	–
[2], x2 = 0.9084	0.114 ± 0.00217	–
[2], x2 = 0.9562	0.0607 ± 0.00139	–

CCCCOC(=O)CC [butyl propanoate] + CCCCCCCCCCCCC
Conditions	excess molar enthalpy [kcal/mol]	excess molar volume [m3/mol]
[1], x1 = 0.0406	–	1.23e-07 ± 1.6e-08
[1], x1 = 0.0973	–	2.84e-07 ± 1.7e-08
[1], x1 = 0.1791	–	4.62e-07 ± 1.8e-08
[1], x1 = 0.2615	–	6.48e-07 ± 1.9e-08
[1], x1 = 0.3352	–	7.42e-07 ± 1.9e-08
[1], x1 = 0.4049	–	8.02e-07 ± 1.9e-08
[1], x1 = 0.4702	–	8.32e-07 ± 1.9e-08
[1], x1 = 0.5333	–	8.34e-07 ± 1.9e-08
[1], x1 = 0.5918	–	8.19e-07 ± 1.9e-08
[1], x1 = 0.6472	–	7.81e-07 ± 1.9e-08
[1], x1 = 0.6989	–	7.36e-07 ± 1.9e-08
[1], x1 = 0.7487	–	6.45e-07 ± 1.8e-08
[1], x1 = 0.7961	–	5.77e-07 ± 1.8e-08
[1], x1 = 0.84	–	4.79e-07 ± 1.8e-08
[1], x1 = 0.8821	–	3.67e-07 ± 1.7e-08
[1], x1 = 0.9219	–	2.68e-07 ± 1.7e-08
[1], x1 = 0.9617	–	1.52e-07 ± 1.6e-08
[2], x1 = 0.0777	0.0756 ± 0.00158	–
[2], x1 = 0.152	0.132 ± 0.00239	–
[2], x1 = 0.2315	0.185 ± 0.00335	–
[2], x1 = 0.3105	0.227 ± 0.00382	–
[2], x1 = 0.3857	0.253 ± 0.0043	–
[2], x1 = 0.4542	0.266 ± 0.00454	–
[2], x1 = 0.5154	0.27 ± 0.00454	–
[2], x1 = 0.5619	0.267 ± 0.00454	–
[2], x1 = 0.6157	0.26 ± 0.0043	–
[2], x1 = 0.6596	0.244 ± 0.00406	–
[2], x1 = 0.7081	0.225 ± 0.00382	–
[2], x1 = 0.7591	0.196 ± 0.00335	–
[2], x1 = 0.8107	0.165 ± 0.00287	–
[2], x1 = 0.857	0.132 ± 0.00239	–
[2], x1 = 0.9081	0.0902 ± 0.00179	–
[2], x1 = 0.9555	0.0467 ± 0.00115	–

CCCCOC(=O)CC [butyl propanoate] + CCCCCCC
Conditions	excess molar enthalpy [kcal/mol]	excess molar volume [m3/mol]
[1], x1 = 0.0273	–	5.6e-08 ± 1.6e-08
[1], x1 = 0.0572	–	1.25e-07 ± 1.6e-08
[1], x1 = 0.1181	–	2.05e-07 ± 1.6e-08
[1], x1 = 0.1785	–	2.96e-07 ± 1.7e-08
[1], x1 = 0.2334	–	3.5e-07 ± 1.7e-08
[1], x1 = 0.2923	–	3.76e-07 ± 1.7e-08
[1], x1 = 0.3518	–	3.93e-07 ± 1.7e-08
[1], x1 = 0.4089	–	4e-07 ± 1.7e-08
[1], x1 = 0.4681	–	3.95e-07 ± 1.7e-08
[1], x1 = 0.528	–	3.75e-07 ± 1.7e-08
[1], x1 = 0.586	–	3.44e-07 ± 1.7e-08
[1], x1 = 0.6449	–	3.06e-07 ± 1.7e-08
[1], x1 = 0.7036	–	2.6e-07 ± 1.7e-08
[1], x1 = 0.7666	–	2.08e-07 ± 1.6e-08
[1], x1 = 0.8207	–	1.76e-07 ± 1.6e-08
[1], x1 = 0.8838	–	1.05e-07 ± 1.6e-08
[1], x1 = 0.937	–	7.2e-08 ± 1.6e-08
[2], x1 = 0.0476	0.0417 ± 0.00105	–
[2], x1 = 0.1067	0.0841 ± 0.0017	–
[2], x1 = 0.1732	0.121 ± 0.00225	–
[2], x1 = 0.2357	0.146 ± 0.00263	–
[2], x1 = 0.2979	0.163 ± 0.00287	–
[2], x1 = 0.3579	0.176 ± 0.00311	–
[2], x1 = 0.4131	0.183 ± 0.00311	–
[2], x1 = 0.4328	0.185 ± 0.00311	–
[2], x1 = 0.464	0.186 ± 0.00335	–
[2], x1 = 0.475	0.187 ± 0.00335	–
[2], x1 = 0.5206	0.186 ± 0.00335	–
[2], x1 = 0.5701	0.181 ± 0.00311	–
[2], x1 = 0.6256	0.171 ± 0.00311	–
[2], x1 = 0.6846	0.156 ± 0.00287	–
[2], x1 = 0.7498	0.134 ± 0.00239	–
[2], x1 = 0.8152	0.106 ± 0.00203	–
[2], x1 = 0.8835	0.0717 ± 0.00151	–
[2], x1 = 0.9449	0.0357 ± 0.000956	–
